In patent US10590109B2, “Heterocyclic compounds used as FGFR inhibitors” (Nanjing InnoCare Pharma Tech Co., Ltd., priority 2016, dated 2020):

How the values were obtained:
[1] = biological target: human recombinant FGFR3 catalytic structural domain protein (Homo sapiens (Human), UniProt P22607); assay: FGFR3 activity inhibition test (HTRF kinase assay); assay type: biochemical; conditions: 90 μM ATP
Experimental: FGFR3 Activity Inhibition Test
The influence of the compound according to the present invention on the activity of fibroblast growth factor receptor 3 (FGFR3) was evaluated by an in vitro kinase assay experiment.
(§1) The experimental method is summarized as follows:
The in vitro activity of FGFR3 was determined by assaying the phosphorylation level of the substrate in the kinase reaction, by means of an HTRF kinase assay kit. The reaction buffer comprised the following components: 5-fold diluted Enzymatic buffer/kinase 5× (Cisbio, Catalog number 62EZBFDD) (main ingredient: 50 mM HEPES, pH 7.0), 5 mM MgCl2, 1 mM DTT; the human recombinant FGFR3 catalytic structural domain protein (amino acids 399-806) was commercially available from Sino Biological Inc., diluted with the reaction buffer to a 0.3 ng/μL kinase solution; the substrate reaction solution comprised a biotin labeled tyrosine kinase substrate diluted with the reaction buffer to 1000 nM (Cisbio, catalog number 62TK0PEC), and 90 μM ATP, and the assay solution comprised an Eu^3+ labeled cage-shaped antibody (Cisbio, Catalog number 61T66KLB) diluted with the assay buffer (Cisbio, Catalog number 62SDBRDF) to 0.125 ng/μL, and 62.5 nM streptavidin labeled XL665 (Cisbio, Catalog number 610SAXLB).
(§2) The compound was dissolved and diluted in 100% DMSO to 100 μM, then 4-fold-series diluted with DMSO to a minimum concentration of 0.0061 μM, and each concentration point was then 40-fold diluted with the reaction buffer. If the IC50 value of the compound was very low, the initial concentration of the compound could be reduced.
(§3) 4 μL of a compound solution and 2 μL of an FGFR3 kinase solution were added into a 384 well assay plate (Thermo, Catalog number 264706), mixed uniformly and then incubated for 15 min at room temperature; subsequently, 4 μL of the substrate reaction solution was added therein, and the reaction mixture was incubated for 60 min at room temperature; and then 10 μL of an assay solution of an equal volume to the reaction was added therein and mixed uniformly, followed by placement at room temperature. After 60 min, the enzyme reaction was terminated by EDTA in the assay solution, and the phosphorylated products were identified by both the Eu^3+ labeled cage-shaped antibody (donor) and the streptavidin labeled XL665 antibody (receptor) at the same time. After the excitation with laser, the donors and receptors that were close to each other experienced energy resonance transfer, and the energy transferred from the donor (620 nm) to the receptor (665 nm) could be detected with Envision. The ratio of 665/620 is in positive correlation to the phosphorylation degree of the substrate, thereby to detect the FGFR3 kinase activity. […] The inhibition percentage of the compound against […] activity could be calculated with the following formula: Inhibition percentage=100−100*(signalcompound−signalnegative control)/(signalpositive control−signalnegative control)
(§4) The IC50 value of the compound was calculated by the following formula, from 10 concentration points, with XLfit (ID Business Solutions Ltd., UK): Y=Bottom+(Top−Bottom)/(1+10^((Log IC50−X)*slope factor)) Where, Y is the inhibition percentage, Bottom is the bottom plateau of the curve (the bottom plateau of the S-type curve), Top is the top plateau of the curve (the top plateau of the S-type curve), and X is the log value of the compound concentration to be measured.

[2] = biological target: human recombinant FGFR2 catalytic structural domain protein (Homo sapiens (Human), UniProt P21802); assay: FGFR2 activity inhibition test (HTRF kinase assay); assay type: biochemical; conditions: 50 μM ATP
human recombinant FGFR2 catalytic structural domain protein, sequence (P21802 400-821): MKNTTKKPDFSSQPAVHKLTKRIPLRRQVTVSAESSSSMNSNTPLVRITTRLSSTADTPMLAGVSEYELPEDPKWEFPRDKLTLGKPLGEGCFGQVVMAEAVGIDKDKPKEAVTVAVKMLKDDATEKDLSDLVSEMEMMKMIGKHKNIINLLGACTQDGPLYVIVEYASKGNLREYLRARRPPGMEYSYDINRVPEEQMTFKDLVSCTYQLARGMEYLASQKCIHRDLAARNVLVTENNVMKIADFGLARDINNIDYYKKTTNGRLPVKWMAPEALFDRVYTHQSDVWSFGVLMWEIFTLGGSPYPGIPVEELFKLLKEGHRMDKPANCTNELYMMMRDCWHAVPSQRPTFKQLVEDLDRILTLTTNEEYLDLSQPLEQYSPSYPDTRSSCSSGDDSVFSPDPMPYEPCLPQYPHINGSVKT
Experimental: FGFR2 Activity Inhibition Test
The influence of the compound according to the present invention on the activity of fibroblast growth factor receptor 2 (FGFR2) was evaluated by an in vitro kinase assay experiment.
as §1
The in vitro activity of FGFR2 was determined by assaying the phosphorylation level of the substrate in the kinase reaction, by means of an HTRF kinase assay kit. The reaction buffer comprised the following components: 5-fold diluted Enzymatic buffer/kinase 5× (Cisbio, Catalog number 62EZBFDD) (main ingredient: 50 mM HEPES, pH 7.0), 5 mM MgCl2, 1 mM DTT; the human recombinant FGFR2 catalytic structural domain protein (amino acids 400-821) was commercially available from Beijing Sino Biological Inc., diluted with the reaction buffer to a 0.045 ng/μL kinase solution; the substrate reaction solution comprised a biotin labeled tyrosine kinase substrate diluted with the reaction buffer to 800 nM (Cisbio, catalog number 62TK0PEC), and 50 μM ATP, and the assay solution comprised an Eu^3+ labeled cage-shaped antibody (Cisbio, Catalog number 61T66KLB) diluted with the assay buffer (Cisbio, Catalog number 62SDBRDF) to 0.125 ng/μL, and 50 nM streptavidin labeled XL665 (Cisbio, Catalog number 610SAXLB).
as §2
as §3, with “FGFR2” for “FGFR3”
(§5) The IC50 value of the compound was calculated by the following formula, from 10 concentration points, with XLfit (ID Business Solutions Ltd., UK): Y=Bottom+(Top−Bottom)/(1+10^((Log IC50−X)*slope factor))
(§6) Where, Y is the inhibition percentage, Bottom is the bottom plateau of the curve (the bottom plateau of the S-type curve), Top is the top plateau of the curve (the top plateau of the S-type curve), and X is the log value of the compound concentration to be measured.

[3] = biological target: human recombinant FGFR4 catalytic structural domain protein (Homo sapiens (Human), UniProt P22455); assay: FGFR4 activity inhibition test (HTRF kinase assay); assay type: biochemical; conditions: 90 μM ATP
human recombinant FGFR4 catalytic structural domain protein, sequence (P22455 460-802): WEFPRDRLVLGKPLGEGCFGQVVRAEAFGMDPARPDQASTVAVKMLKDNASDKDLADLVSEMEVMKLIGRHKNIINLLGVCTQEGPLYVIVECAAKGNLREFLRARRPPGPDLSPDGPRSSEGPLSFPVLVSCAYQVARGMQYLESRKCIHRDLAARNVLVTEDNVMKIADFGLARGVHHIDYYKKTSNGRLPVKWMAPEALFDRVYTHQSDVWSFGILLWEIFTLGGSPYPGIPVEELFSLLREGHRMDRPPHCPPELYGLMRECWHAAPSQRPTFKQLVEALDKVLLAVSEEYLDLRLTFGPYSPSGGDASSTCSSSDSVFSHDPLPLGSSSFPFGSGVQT
Experimental: FGFR4 Activity Inhibition Test
The influence of the compound according to the present invention on the activity of fibroblast growth factor receptor 4 (FGFR4) was evaluated by an in vitro kinase assay experiment.
as §1
The in vitro activity of FGFR4 was determined by assaying the phosphorylation level of the substrate in the kinase reaction, by means of an HTRF kinase assay kit.
(§7) If the IC50 value of the compound was very low, the initial concentration of the compound could be reduced.
(§8) After 60 min, the enzyme reaction was terminated by EDTA in the assay solution, and the phosphorylated products were identified by both the Eu^3+ labeled cage-shaped antibody (donor) and the streptavidin labeled XL665 antibody (receptor) at the same time. […] The inhibition percentage of the compound against FGFR4 activity could be calculated with the following formula: Inhibition percentage=100−100*(signalcompound−signalnegative control)/(signalpositive control−signalnegative control)
as §4

[4] = biological target: human recombinant FGFR1 catalytic structural domain protein (Homo sapiens (Human), UniProt P11362); assay: FGFR1 activity inhibition test (HTRF kinase assay); assay type: biochemical; conditions: 40 μM ATP
human recombinant FGFR1 catalytic structural domain protein, sequence (P11362 other isoform, or with tags, fused parts or gaps): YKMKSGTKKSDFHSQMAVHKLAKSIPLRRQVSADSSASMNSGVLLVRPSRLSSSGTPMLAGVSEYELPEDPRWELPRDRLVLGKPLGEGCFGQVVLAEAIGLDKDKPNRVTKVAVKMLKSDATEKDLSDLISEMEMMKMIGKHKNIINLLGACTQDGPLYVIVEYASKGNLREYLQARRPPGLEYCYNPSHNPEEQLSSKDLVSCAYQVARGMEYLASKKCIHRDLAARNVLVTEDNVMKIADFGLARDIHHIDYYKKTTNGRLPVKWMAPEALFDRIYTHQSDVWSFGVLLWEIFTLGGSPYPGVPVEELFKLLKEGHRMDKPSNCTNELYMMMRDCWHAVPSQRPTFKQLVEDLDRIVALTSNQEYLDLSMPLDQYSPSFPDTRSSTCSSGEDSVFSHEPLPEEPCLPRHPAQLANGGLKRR
Experimental: FGFR1 Activity Inhibition Test
The influence of the compound according to the present invention on the activity of fibroblast growth factor receptor 1 (FGFR1) was evaluated by an in vitro kinase assay experiment.
as §1
The in vitro activity of FGFR1 was determined by assaying the phosphorylation level of the substrate in the kinase reaction, by means of an HTRF kinase assay kit.
as §7
as §8, with “FGFR1” for “FGFR4”
as §5, §6

[5] = test system: Hep3B cells; assay: Hep3B cell proliferation inhibition test (CellTiter-Glo); assay type: cell-based; conditions: Homo sapiens, 72 h, CTG
Experimental: Hep3B Cell Proliferation Inhibition Test
The influence of the compound according to the present invention on Hep3B cell proliferation was evaluated by a luminescence cell viability test.
as §1
A CellTilter-Glo (CTG) assay kit was used to detect an indicator ATP of active cellular metabolism by means of a unique stable luciferase, and the luminous signal produced in the test was in direct proportion to the count of active cells in the medium, thereby to detect the cell proliferation of Hep3B.
A CellTilter-Glo agent (Promega, G7572) was comprised of a CellTilter-Glo lyophilized powder and a CellTilter-Glo buffer, and the lyophilized powder was dissolved into the buffer in use.
Hep3B cells (ATCC, HB-8064) (cell source: Shanghai Academy of Life Sciences, Chinese Academy of Sciences) were cultured in a DMEM complete medium (Thermofisher, 11995073) containing a 10% FBS (GBICO, 10099-141) and 100 units/ml mycillin mixed solution (Thermofisher, 15140122). When the cells coverage reached 80-90% in the culture vessel, after the cells were digested and blown about with 0.25% pancreatin (containing EDTA) (Thermofisher, 25200056), they were planted in a white 384 well plate (Thermofisher, 164610), with 1000 cells in each well (27 μl of a DMEM complete medium), and then the 384 well plate was placed into an incubator at 37° C. and 5% CO2 and cultured overnight (18-20 h). The compound was dissolved and diluted in 100% DMSO to 100 μM, then 4-fold-series diluted with DMSO to a minimum concentration of 0.0061 μM, and each concentration point was 50-fold diluted with the FBS-free DMEM medium. If the IC50 value of the compound was very low, the initial concentration of the compound could be reduced. […] This 384 well plate was placed into an incubator at 37° C. and 5% CO2 for further culture, taken out after 72 h, and stood at room temperature for 30 min. The CTG agent was also taken out and balanced to room temperature. 15 μl of the CTG agent was added into each well, and placed onto a shaker to be gently shaken for 3 min to ensure sufficient cell lysis. After 10 min of standing to allow the luminescence signal to be stable, the luminescence signal was read with EnVision (Perkin Elmer).
The inhibition percentage of the compound against Hep3B cell proliferation could be calculated with the following formula: Inhibition percentage=100−100*(signalcompound−signalnegative control)/(signalpositive control−signalnegative control)
The IC50 value of the compound was calculated by the following formula, from 8 concentration points, with XLfit (ID Business Solutions Ltd., UK): Y=Bottom+(Top−Bottom)/(1+10^((Log IC50−X)*slope factor))
as §6

human recombinant FGFR3 catalytic structural domain protein, sequence (P22607 399-806): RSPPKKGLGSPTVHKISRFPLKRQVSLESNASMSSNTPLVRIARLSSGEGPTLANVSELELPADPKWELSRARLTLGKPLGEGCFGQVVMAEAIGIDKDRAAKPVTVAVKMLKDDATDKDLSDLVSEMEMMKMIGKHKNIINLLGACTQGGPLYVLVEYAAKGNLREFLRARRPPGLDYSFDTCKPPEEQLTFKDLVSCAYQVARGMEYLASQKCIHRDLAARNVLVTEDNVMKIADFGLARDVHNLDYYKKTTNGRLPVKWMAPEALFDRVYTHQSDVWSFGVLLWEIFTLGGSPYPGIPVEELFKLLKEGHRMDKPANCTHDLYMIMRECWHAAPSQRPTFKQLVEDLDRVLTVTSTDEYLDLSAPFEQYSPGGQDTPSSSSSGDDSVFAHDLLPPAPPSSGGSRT

Row | SMILES | IC50 [2] | IC50 [3] | IC50 [4] | IC50 [5] | IC50 [1]
1 | CN(C(=O)Nc1cc(Cl)c(C#N)cn1)c1ccc(CN2CCOCC2=O)c(C=O)n1 [Compound 11] | > 1 µM | 0.01 to 0.1 µM | > 1 µM | – | > 1 µM
2 | COCCNc1cc(NC(=O)N(C)c2ccc(CO)c(C=O)n2)ncc1C#N [Compound 21, 3-(5-cyano-4-((2-methoxyethyl)amino)pyrid-2-yl)-1-(6-formyl-5-(hydroxymethyl)pyrid-2-yl)-1-methylurea] | > 1 µM | 0.1 to 1 µM | > 1 µM | – | > 1 µM
3 | CN(C(=O)Nc1cc(Cl)c(C#N)cn1)c1ccc(CO)c(C=O)n1 [Compound 22, 3-(4-chloro-5-cyanopyrid-2-yl)-1-(6-formyl-5-(hydroxymethyl)pyrid-2-yl)-1-methylurea] | > 1 µM | 0.1 to 1 µM | > 1 µM | – | > 1 µM

More lines, main results first:

Row | IC50 [2] | IC50 [3] | IC50 [4] | IC50 [5] | SMILES | IC50 [1]
4 | > 1 µM | < 0.01 µM | > 1 µM | – | COCCOc1cc(NC(=O)N(C)c2ccc(CN3CCN(C)CC3=O)c(C=O)n2)ncc1C#N [Compound 20, 3-(5-cyano-4-(2-methoxyethoxy)pyrid-2-yl)-1-(6-formyl-5-((4-methyl-2-carbonylpiperazin-1-yl)methyl)pyrid-2-yl)-1-methylurea] | > 1 µM
5 | > 1 µM | < 0.01 µM | > 1 µM | – | C[C@H](CO)Oc1cc(NC(=O)N(C)c2ccc(CN3CCN(C)CC3=O)c(C=O)n2)ncc1C#N [Compound 25, (R)-3-(5-cyano-4-((1-hydroxyprop-2-yl)oxy)pyrid-2-yl)-1-(6-formyl-5-((4-methyl-2-carbonylpiperazin-1-yl)methyl)pyrid-2-yl)-1-methylurea] | > 1 µM
6 | > 1 µM | 0.01 to 0.1 µM | > 1 µM | – | CC(C)Oc1cc(NC(=O)N(C)c2ccc(CN3CCOCC3=O)c(C=O)n2)ncc1C#N [Compound 13] | > 1 µM
7 | > 1 µM | 0.01 to 0.1 µM | > 1 µM | 0.05 to 0.1 µM | COCCNc1cc(NC(=O)N(C)c2ccc(C3CCNCC3)c(C=O)n2)ncc1C#N [Compound 23, 3-(5-cyano-4-((2-methoxyethyl)amino)pyrid-2-yl)-1-(6-formyl-5-(piperidin-4-yl)pyrid-2-yl)-1-methylurea] | –
